# Experimental data reported in BindingDB's records for patent US20250026748 (Repare Therapeutics, 2025).
# Biological target: DNA polymerase theta (Homo sapiens, UniProt O75417)
# Experiment: Polθ ATPase Enzymatic Assay (0.5 nM Enzyme Concentration)
# Description: Following pre-incubation with inhibitors, DNA (Fork C) at 20 nM and ATP at 100 μM are added to start the reaction. Enzymatic reaction proceeds at rt for 180 min ATP consumption is measured using the ADP-Glo assay from Promega.
# Sequence of DNA polymerase theta (O75417 whole entry): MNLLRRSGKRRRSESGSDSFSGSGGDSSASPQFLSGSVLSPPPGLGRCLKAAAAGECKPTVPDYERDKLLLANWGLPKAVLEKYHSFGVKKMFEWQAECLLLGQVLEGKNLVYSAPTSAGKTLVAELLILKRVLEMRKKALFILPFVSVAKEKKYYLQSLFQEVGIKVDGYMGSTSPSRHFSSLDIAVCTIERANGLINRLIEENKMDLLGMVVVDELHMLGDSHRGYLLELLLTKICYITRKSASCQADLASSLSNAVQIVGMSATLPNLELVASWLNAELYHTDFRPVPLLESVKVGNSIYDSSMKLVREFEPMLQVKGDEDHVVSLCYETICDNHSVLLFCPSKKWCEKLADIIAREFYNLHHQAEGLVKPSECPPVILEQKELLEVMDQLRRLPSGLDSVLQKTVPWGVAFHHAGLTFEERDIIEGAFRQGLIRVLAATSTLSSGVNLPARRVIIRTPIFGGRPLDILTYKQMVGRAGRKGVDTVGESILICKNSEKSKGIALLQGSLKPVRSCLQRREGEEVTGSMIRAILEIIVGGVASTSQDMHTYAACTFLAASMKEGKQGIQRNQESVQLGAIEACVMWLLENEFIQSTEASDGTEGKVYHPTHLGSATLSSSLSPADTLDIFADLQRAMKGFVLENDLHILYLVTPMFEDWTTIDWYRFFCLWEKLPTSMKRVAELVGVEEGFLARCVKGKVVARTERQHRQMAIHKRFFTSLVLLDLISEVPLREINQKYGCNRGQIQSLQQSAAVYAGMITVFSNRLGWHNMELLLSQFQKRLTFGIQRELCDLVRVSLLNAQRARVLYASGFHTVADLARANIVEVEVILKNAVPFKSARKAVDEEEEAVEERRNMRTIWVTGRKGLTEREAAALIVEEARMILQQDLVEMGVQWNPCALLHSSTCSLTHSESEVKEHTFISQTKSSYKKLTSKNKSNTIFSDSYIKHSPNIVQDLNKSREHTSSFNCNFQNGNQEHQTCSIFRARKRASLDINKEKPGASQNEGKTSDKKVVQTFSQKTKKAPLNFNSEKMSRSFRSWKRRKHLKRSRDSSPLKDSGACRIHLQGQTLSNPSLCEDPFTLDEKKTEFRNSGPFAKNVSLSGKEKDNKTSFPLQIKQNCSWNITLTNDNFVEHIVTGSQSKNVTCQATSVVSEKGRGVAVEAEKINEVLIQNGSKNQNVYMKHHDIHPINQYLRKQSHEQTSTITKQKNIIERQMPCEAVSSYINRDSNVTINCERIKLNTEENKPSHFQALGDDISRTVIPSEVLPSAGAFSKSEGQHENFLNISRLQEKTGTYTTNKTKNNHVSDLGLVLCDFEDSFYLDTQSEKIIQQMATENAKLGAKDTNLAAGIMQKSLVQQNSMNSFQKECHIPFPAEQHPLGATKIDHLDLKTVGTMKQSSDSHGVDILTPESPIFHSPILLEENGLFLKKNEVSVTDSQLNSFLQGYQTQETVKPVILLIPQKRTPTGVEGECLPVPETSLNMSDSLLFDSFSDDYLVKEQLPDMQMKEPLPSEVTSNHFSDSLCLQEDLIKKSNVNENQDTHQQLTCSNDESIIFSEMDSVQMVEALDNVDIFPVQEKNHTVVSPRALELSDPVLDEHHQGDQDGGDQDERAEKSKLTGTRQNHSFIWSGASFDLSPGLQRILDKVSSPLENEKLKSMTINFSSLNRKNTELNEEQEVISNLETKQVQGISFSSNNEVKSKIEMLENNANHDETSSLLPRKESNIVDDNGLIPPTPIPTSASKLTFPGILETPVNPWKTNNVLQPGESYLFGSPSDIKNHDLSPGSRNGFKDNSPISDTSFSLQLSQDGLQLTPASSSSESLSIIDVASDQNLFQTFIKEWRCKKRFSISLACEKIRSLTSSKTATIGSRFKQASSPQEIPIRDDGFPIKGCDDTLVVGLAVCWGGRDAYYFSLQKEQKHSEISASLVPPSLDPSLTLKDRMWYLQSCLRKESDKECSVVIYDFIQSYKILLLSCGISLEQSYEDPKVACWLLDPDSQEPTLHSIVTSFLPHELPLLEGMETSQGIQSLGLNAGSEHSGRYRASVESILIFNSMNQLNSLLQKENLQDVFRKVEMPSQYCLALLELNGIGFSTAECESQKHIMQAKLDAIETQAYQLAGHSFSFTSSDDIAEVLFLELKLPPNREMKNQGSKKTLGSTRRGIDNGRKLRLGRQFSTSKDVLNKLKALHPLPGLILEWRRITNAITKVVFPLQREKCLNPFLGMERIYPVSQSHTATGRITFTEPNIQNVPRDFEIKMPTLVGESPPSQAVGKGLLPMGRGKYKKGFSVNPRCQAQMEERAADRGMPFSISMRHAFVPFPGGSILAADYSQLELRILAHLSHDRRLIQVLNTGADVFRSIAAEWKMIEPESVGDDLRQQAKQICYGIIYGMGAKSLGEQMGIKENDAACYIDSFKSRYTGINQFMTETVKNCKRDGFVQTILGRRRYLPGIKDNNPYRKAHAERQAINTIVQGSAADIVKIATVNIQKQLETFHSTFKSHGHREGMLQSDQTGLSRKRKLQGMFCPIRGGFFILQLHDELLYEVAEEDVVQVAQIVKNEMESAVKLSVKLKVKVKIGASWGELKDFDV
row,Compound,IC50 [nM]
1,"COc1cnc(C(F)F)cc1-c1nc(-c2ccn(C)n2)cnc1C(=O)Nc1nnc(C#CC2CC2)s1 [US20250026748, Compound 140]",38
2,"COc1ccc(C(F)(F)F)cc1-c1cn(C)c(=O)cc1C(=O)Nc1nnc(C#CC2CCOC2)s1 (configuration not stated) [US20250026748, Compound 340]",12
3,"COc1cnc(C(F)F)cc1-c1cc(-c2ccn(C)n2)ncc1C(=O)Nc1nnc(C#Cc2cc(C)[nH]n2)s1 [US20250026748, Compound 370]",2.9

# Now from value to compound:
row,IC50 [nM],Compound
1,1.1,"COc1cnc(Cl)cc1-c1cnccc1C(=O)Nc1ncc(C#CC2CC2)s1 [US20250026748, Compound 38]"
2,0.37,"COc1ccc(Cl)cc1-c1cnccc1C(=O)Nc1nnc(C#CC2CC2)s1 [US20250026748, Compound 57]"
3,1.9,"COc1ccc(Cl)cc1-c1cn(Cc2nccs2)c(=O)cc1C(=O)Nc1nnc(C#CC2CC2)s1 [US20250026748, Compound 63]"
4,0.38,"COc1cnc(Cl)cc1-c1cc(-c2nnc(C)o2)ccc1C(=O)Nc1nnc(C#CC2CC2)s1 [US20250026748, Compound 305]"
